The test system of one data set is huCART19 cells. In words: 4 day co-culture proliferation assay of CARTs with Nalm-6 cells in the presence of RAD001. Format: cell-based, human. The source says:
A humanized, anti-human CD19 CAR (huCART19) lentiviral transfer vector was used to produce the genomic material packaged into VSVg pseudotyped lentiviral particles. The amino acid and nucleotide sequence of the humanized anti-human CD19 CAR (huCART19) is CAR 1, ID 104875, described in PCT publication, WO2014/153270, filed Mar. 15, 2014, and is designated SEQ ID NOs. 85 and 31 therein.
Lentiviral transfer vector DNA is mixed with the three packaging components VSVg env, gag/pol and rev in combination with lipofectamine reagent to transfect Lenti-X 293T cells. Medium is changed after 24 h and 30 h thereafter, the virus-containing media is collected, filtered and stored at −80° C. CARTs are generated by transduction of fresh or frozen naïve T cells obtained by negative magnetic selection of healthy donor blood or leukopak. T cells are activated by incubation with anti-CD3/anti-CD28 beads for 24 h, after which viral supernatant or concentrated virus (MOI=2 or 10, respectively) is added to the cultures. The modified T cells are allowed to expand for about 10 days. The percentage of cells transduced (expressing the CARs on the cell surface) and the level of CAR expression (relative fluorescence intensity, Geo Mean) are determined by flow cytometric analysis between days 7 and 9. The combination of slowing growth rate and T cell size approaching ˜350 fL determines the state for T cells to be cryopreserved for later analysis.
To evaluate the functionality of CARTs, the T cells are thawed and counted, and viability is assessed by Cellometer. The number of CAR-positive cells in each culture is normalized using non-transduced T cells (UTD). The impact of RAD001 on CARTs was tested in titrations with RAD001, starting at 50 nM. The target cell line used in all co-culture experiments is Nalm-6, a human pre-B cell acute lymphoblastic leukemia (ALL) cell line expressing CD19 and transduced to express luciferase.
For measuring the proliferation of CARTs, T cells are cultured with target cells at a ratio of 1:1. The assay is run for 4 days, when cells are stained for CD3, CD4, CD8 and CAR expression. The number of T cells is assessed by flow cytometry using counting beads as reference.

In another data set the test system is NALM6-luc tumors. In words: Tumor growth of NALM6-luc cells in NSG mice with daily RAD001 dosing. Format: in vivo. The settings on record: daily oral dosing of RAD001 alone, 0.3, 1, 3 and 10 mg/kg. Here is the method:
NALM6-luc cells: The NALM6 human acute lymphoblastic leukemia (ALL) cell line was developed from the peripheral blood of a patient with relapsed ALL. The cells were then tagged with firefly luciferase. These suspension cells grow in RPMI supplemented with 10% heat inactivated fetal bovine serum.
Mice: 6 week old NSG (NOD.Cg-PrkdcscidIl2rgtm1Wjl/SzJ) mice were received from the Jackson Laboratory (stock number 005557).
(§1) Tumor implantation: NALM6-luc cells were grown and expanded in vitro in RPMI supplemented with 10% heat inactivated fetal bovine serum. The cells were then transferred to a 15 ml conical tube and washed twice with cold sterile PBS. NALM6-luc cells were then counted and resuspended at a concentration of 10×10^6 cells per milliliter of PBS. The cells were placed on ice and immediately (within one hour) implanted in the mice. NALM6-luc cells were injected intravenously via the tail vein in a 100 μl volume, for a total of 1×10^6 cells per mouse.
(§2) RAD001 dosing: A concentrated micro-emulsion of 50 mg equal to 1 mg RAD001 was formulated and then resuspended in D5W (dextrose 5% in water) at the time of dosing. Mice were orally dosed daily (via oral gavage) with 200 μl of the desired doses of RAD001.

Data set [1] in a line: Pharmacokinetics of RAD001 in the blood of NSG mice with NALM6 tumors. Format: in vivo. The following applies: for concentration at 24 h: mouse, blood. Here is the method: as §2
PK analysis: Mice were dosed daily with RAD001 starting 7 days post tumor implantation. Dosing groups were as follows: 0.3 mg/kg, 1 mg/kg, 3 mg/kg, and 10 mg/kg. Mice were bled on days 0 and 14 following the first and last dose of RAD001, at the following time points for PK analysis: 15 minutes, 30 minutes, 1 hour, 2 hours, 4 hours, 8 hours, 12 hours, and 24 hours.

Another data set has as its system huCAR19 CAR T cells. As to the kind of experiment: In vivo proliferation of humanized CD19 CAR T cells with and without RAD001 dosing. Also on record: species or system NSG mice. The procedure: as §1
CAR T cell dosing: Mice were administered 5×10^6 CAR T cells 7 days after tumor implantation. Cells were partially thawed in a 37 degree Celsius water bath and then completely thawed by the addition of 1 ml of cold sterile PBS to the tube containing the cells. The thawed cells were transferred to a 15 ml falcon tube and adjusted to a final volume of 10 mls with PBS. The cells were washed twice at 1000 rpm for 10 minutes each time and then counted on a hemocytometer. T cells were then resuspended at a concentration of 50×10^6 CAR T cells per ml of cold PBS and kept on ice until the mice were dosed. The mice were injected intravenously via the tail vein with 100 μl of the CAR T cells for a dose of 5×10^6 CAR T cells per mouse. Eight mice per group were treated either with 100 μl of PBS alone (PBS), or humanized CD19 CAR T cells.
as §2
Based on these doses, huCAR19 CAR T cells were dosed with and without RAD001 to determine the proliferative ability of these cells. The highest dose used was 3 mg/kg based on the levels of RAD001 in the blood 24 hours after dosing. As the concentration of RAD001 was above 10 nM 24 hours after the final dose of RAD001, several lower doses of RAD001 were used in the in vivo study with CAR T cells. The CAR T cells were dosed IV one day prior to the start of the daily oral RAD001 dosing. Mice were monitored via FACS for T cell expansion.

Where two headings read alike, the source gives them in different places.

Turning to `CO[C@H]1C[C@@H]2CC[C@@H](C)[C@@](O)(O2)C(=O)C(=O)N2CCCC[C@H]2C(=O)O[C@H]([C@H](C)C[C@@H]2CC[C@@H](OCCO)[C@H](OC)C2)CC(=O)[C@H](C)/C=C(\C)[C@@H](O)[C@@H](OC)C(=O)[C@H](C)C[C@H](C)/C=C/C=C/C=C/1C` [RAD001, (1R,9S,12S,15R,16E,18R,19R,21R,23S,24E,26E,28E,30S,32S,35R)-1,18-dihydroxy-12-{(1R)-2-[(1S,3R,4R)-4-(2-hydroxyethoxy)-3-methoxycyclohexyl]-1-methylethyl}-19,30-dimethoxy-15,17,21,23,29,35-hexamethyl-11,36-dioxa-4-aza-tricyclo[30.3.1.04,9]hexatriaconta-16,24,26,28-tetraene-2,3,10,14,20-pentaone], the “proliferation of huCART19 cells versus no RAD001” value in the data set on huCART19 cells (0.0032 nM RAD001) and in the data set with huCART19 cells (0.016 nM RAD001) was “higher than observed without the addition of RAD001” each time. Besides, the “RAD001 concentration at which huCART19 cells expanded” value in the data set on huCART19 cells (4 day co-culture with Nalm-6, ratio 1:1) is recorded as “less than 0.016 nM”. The “proliferation of CAR-expressing, transduced T cells” value in the data set with huCART19 cells (low doses of RAD001, cell culture system, FIG. 12) is reported as “enhanced”. Moreover, in the data set with NALM6-luc tumors, the “growth of NALM6-luc tumors” value is “did not have an impact on the growth of NALM6-luc tumors”. Also, the concentration at 24 h in data set [1] (NSG, lowest dose tested (0.3 mg/kg), oral, read-out: RAD001 concentration in the blood 24 hours after dosing) was greater than 10 nM; in data set [1] (0.3 mg/kg, NSG mice, daily oral dosing, read-out: concentration of RAD001 24 hours after the final dose), greater than 10 nM. In data set [1] (daily oral dosing, NSG mice), the “stability in the blood of tumor bearing mice” value is recorded as “fairly stable”. Also, in data set [1] (day 14, lowest dose tested (0.3 mg/kg), oral), the “RAD001 concentration in the blood 24 hours after dosing” value was “above 10 nm”. For the same compound, the “CAR T cell proliferation in vivo versus normal level of huCAR19 proliferation” value in the data set on huCAR19 CAR T cells (0.003 mg/kg RAD001 daily) is “enhancement in CAR T cell proliferation”. Also, the “enhanced proliferation, CD4+ CAR T cells compared with CD8+ CAR T cells” value with huCAR19 CAR T cells (lowest doses of RAD001) is “more evident and prolonged”. In the data set on huCAR19 CAR T cells (lowest doses of RAD001), the “proliferation of CD8+ CAR T cells in vivo” value is “enhanced proliferation can be seen at early time points”. The “proliferation of the CAR T cells in vivo” value in the data set with huCAR19 CAR T cells (lowest doses of RAD001, daily oral) is “enhanced proliferation”.

The values above are taken from patent US11542488B2, “Sortase synthesized chimeric antigen receptors” (Novartis AG, priority 2014, dated 2023).
